Experimental data published in US20040082665A1, “Method for treating stress or tension” (priority 2001, published 2004).

Legend:
patients [1] = assay: Randomised placebo-controlled double-blind study; ability to tolerate stress by Visual Analogue Scale (VAS); type: in vivo; conditions: tablet
Experimental: The effects of deramciclane were studied in a randomised placebo-controlled double-blind study. The subjects were randomly assigned to four parallel groups to receive one tablet twice daily (b.i.d) of a placebo, 5 mg (=10 mg/day), 15 mg (=30 mg/day), or 30 mg (=60 mg/day) deramciclane.
The efficacy of deramciclane on the ability to tolerate stress was analysed by the Visual Analogue Scale (VAS).

patients [2] = assay: Randomised placebo-controlled double-blind parallel group 8-week study of tension; type: in vivo; conditions: after 8 weeks of treatment; for patients with tension scale number at least 4: placebo 48% at baseline, 12% after 8 weeks; for patients with moderate/severe or very severe other tension: present in all patients at baseline, placebo 43%; for patients with moderate/severe or very severe muscular tension: placebo 82% at baseline, 38% after 8 weeks
Source text: The efficacy and safety of deramciclane was studied in the treatment of tension as compared to placebo. A randomised plasebo-controlled double-blind parallel group 8-week study design was used.
Patients were asked if they had muscular tension (twitchings, stiffness, myoclonic jerks, grinding of teeth, unsteady voice or increased muscular tone) or other tension (feelings of tension, fatigability, startle response, moving to tears easily, trembling, feelings of restlessness or inability to relax). This tension was related to be not present, mild, moderate, severe or very severe.
In addition, patients' tension was also rated with the tension scale 1-6:
2—occasional feelings of edginess and ill defined discomfort
4—continuous feelings of inner tension
6—unrelated dread or anguish

CN(C)CCO[C@]1(c2ccccc2)C[C@H]2CC[C@]1(C)C2(C)C [deramciclane, (1R,2S,4R)-(−)-2-phenyl 2-(dimethylaminoethoxy)-1,7,7-trimethyl-bicyclo[2.2.1]heptane] was tested, and the “ability to tolerate stress better than in patients receiving placebo (VAS)” value (shortened to “ability to tolerate stress better than”) (patients [1]; deramciclane 5 mg b.i.d (=10 mg/day)) was 29%, the “ability to tolerate stress better than” value (patients [1]; deramciclane 15 mg b.i.d (=30 mg/day)) was 54% and the “ability to tolerate stress better than” value (patients [1]; deramciclane 30 mg b.i.d. (=60 mg/day)) was 43%. For the same compound, the “patients with tension scale number at least 4” value (patients [2]; 15 mg bid deramciclane, baseline 35%) was 5%, the “patients with moderate/severe or very severe other tension” value (patients [2]; 15 mg bid deramciclane) was 25% and the “patients with moderate/severe or very severe muscular tension” value (patients [2]; 15 mg deramciclane bid, baseline 61%) was 18%. For the same compound, the “patients with tension scale number at least 4” value (patients [2]; 30 mg bid deramciclane, baseline 47%) was 11%, the “patients with moderate/severe or very severe other tension” value (patients [2]; 30 mg bid deramciclane) was 24% and the “patients with moderate/severe or very severe muscular tension” value (patients [2]; baseline 68%) was 15%.
